The results in this text go back to patent publication EP0958287B1, “SULFAMIDE-METALLOPROTEASE INHIBITORS” (F. HOFFMANN-LA ROCHE AG, priority 1997, dated 1998).

For orientation: % inhibition means the share of the control response that was lost under treatment. By inhibition is commonly meant how much of the control response was suppressed. A low value points to little suppression. A word on the IC50: it is the concentration at which inhibition is half-maximal.

The subject of assay [1] is TNF-α. Kind of assay: Inhibition of LPS induced TNF-α production in mice in vivo. As to conditions: Female Balb/c mice, subcutaneous, LPS 50 µg/mouse i.p. after 1 h, serum TNF-α 1.5 h later. As for the experimental part:
The activity of compounds of this invention in inhibiting the TNF-α release was determined, using a minor modification of the methods described in Zanetti, G.; Heumann, D., et. al., "Cytokine production after intravenous or peritoneal Gram-negative bacterial challenge in mice" J. Immunol., 148, 1890, (1992) and Sekut, L., Menius, J.A., et. al., "Evaluation if the significance of elevated levels of systemic and localized tumor necrosis factor in different animal models of inflammation" J. Lab. Clin. Med., 124, 813, (1994).
Female Balb/c mice were anesthetized and injected subcutaneously with the test compounds dissolved in CMC vehicle or hydroxypropylmethyl cellulose based vehicle. Control animals received only the vehicle. After 1 h, LPS (50 µg/ mouse, Sigma #13129, Sigma Chemical Co., St. Louis, MO) was injected intraperitoneally. After 1.5 h, blood was collected from the retro-orbital plexus region of the animals in a microtainer serum separator tube (Becton Dickinson, Cat. No. #5960, Becton Dickinson & Co., Franklin Lakes, NJ). The sera was separated and the amount of TNF-α was determined using the EM-TNFA® kit (Endogen, Woburn, MA) by following the manufacturer's protocol.

For assay [2], the system named is TNF. Kind of assay: Inhibition of TNF release in vitro (LPS/PMA stimulated Monomac 6 cells). In kind it is cell-based. As to conditions: Homo sapiens, MONO-MAC-6, Conc. 10 µM, 2 h. As to the method:
The activity of compounds of this invention in inhibiting the TNF release was determined, using the a minor modification of the method described in Pradines-Figueres, A. and Raetz, C.R.H., J. Biol. Chem., 267 (32), 23261, (1992).
Human Monomac 6 cells (Ziegler-Heitbrock, H.W.L., et al., Int. J. Cancer, 41, 456, (1988)) were cultured at 37 °C in RPMI 1640 medium containing 10% fetal calf serum to a density of 1 x 10^5 cells/ml. 0.23 ml of these cells were placed in each well of a tissue culture plate and the cells were incubated for 15 min. The test compounds were dissolved in above mentioned medium and added and the incubation was continued for an additional 15 min. 10 µl of an lipopolysaccharide/phorbol-12-myristate -13-acetate (LPS/PMA) mixture was added such that the final concentration of lipopolysaccharide was 10 ng/ml and the final concentration of phorbol-12-myristate -13-acetate was 30 ng/ml. The cells were incubated for 2 h after which the plate was centrifuged and the medium was removed and analyzed for TNF content. The analysis was performed using a TNF Quantikine® Immunoassay (R & D Systems, Minneapolis, MN 55413) by following the manufacturer's protocol.

Assay [3] deals with collagen matrix. Kind of assay: Degradation of cartilage plug in vitro (IL-1-α stimulated cartilage explants, hydroxyproline content). The class given is cell-based. As to conditions: bovine cartilage explants stimulated with IL-1-α 20 ng/ml, 21 days; compounds at concentrations between 10 and 300 nm; hydroxyproline content relative to control.
Protocol: The ability of the compounds of this invention to inhibit the degradation of the collagen matrix (as judged by release of hydroxyproline) was determined by the cartilage plug degradation assay in vitro by following a slight modification of the method described in Spirito, S., Doughty, E., et al., "Metalloproteinase inhibitors halt collagen breakdown in IL-1 induced bovine nasal cartilage cultures" Inflamm.
The cultures were stimulated with IL-1-α at a final concentration of 20 ng/ml. Compounds of Formula (I), were added at concentrations between 10 and 300 nm in DMSO. The control samples contained only IL-1-α. […] The cartilage plugs were removed, hydrolyzed and the hydroxyproline content was determined. The MMP inhibitory activity of test materials is the measure of the hydroxyproline content in the test group relative to the vehicle treated group (control group).
The subject of assay [4] is collagen matrix. The experiment in a line: Cartilage plug degradation in vivo (cartilage plug implant assay, hydroxyproline content). As to conditions: cartilage plug implant in female Lewis rats, terminated after 8 or 9 days; hydroxyproline content relative to vehicle group.
Assay [5] concerns the target human collagenase-1. Kind of assay: Inhibition of matrix metalloproteases in vitro: collagenase-1. The class given is biochemical. As to conditions: hydrolysis of MCA-Pro-Leu-Gly-Leu-DPA-Ala-Arg-NH2 at 37 °C; read-out: Collagenase-I IC50.
Protocol: The matrix metalloprotease enzyme was diluted with assay buffer (50 mM Tricine pH 7.5, 200 mM NaCl, 10 mM CaCl2, and 0.005% Brij-35) containing 10 µmole of above substrate dissolved in DMSO.
In assay [6] the target is human collagenase-3. Kind of assay: Inhibition of matrix metalloproteases in vitro: human collagenase-3. In kind it is biochemical. As to conditions: hydrolysis of MCA-Pro-Leu-Gly-Leu-DPA-Ala-Arg-NH2 at 37 °C; species of collagenase-III not given.

As for `O=C(NO)C1CCCCN1S(=O)(=O)N1CCN(c2ccc(Cl)cc2)CC1` (racemic) [compound 234], the “% inhibition” value in assay [1] is recorded as 46%. Compound `CC(C)[C@H](C(=O)NO)N(Cc1ccccc1)S(=O)(=O)N1CCCCC1` [compound 1, N-hydroxy-2-(R)-[benzyl-(piperidine-1-sulfonyl)amino]-3-methylbutyramide] gave an inhibition at 10 µM in assay [2] below 15%.

Consider `CC(C)[C@@H](NS(=O)(=O)N1CCN(c2ccc(Cl)cn2)CC1)C(=O)NO` [compound 50], for which the “% protection” value in assay [3] is 71%; in assay [4], 70%. The matching figures for `CC(C)[C@@H](NS(=O)(=O)N1CCN(c2ccc(Cl)cc2)CC1)C(=O)NO` [compound 51]: 35% and 45%. Turning to `CC(C)[C@@H](NS(=O)(=O)N1CCN(c2ccc(OCc3ccccc3)cc2)CC1)C(=O)NO` [compound 74, N-hydroxy-2-(R)-{[4-(4-benzyloxyphenyl)piperazine-1-sulfonyl]amino}-3-methylbutyramide], in assay [4], the “% protection” value was 46%. Moreover, 10 µM produced 17% inhibition in assay [2]. For the compound `CC(C)[C@@H](NS(=O)(=O)N1CCC(Oc2ccc(F)cc2)CC1)C(=O)NO` [compound 179], in assay [4], the “% protection” value came out at 63%. `O=C(NO)[C@H]1CCCCN1S(=O)(=O)N1CCCC1` [compound 232]: in assay [1], the “% inhibition” value worked out at 73%.

Turning to `O=C(c1ccc(Cl)cc1)C1CCN(S(=O)(=O)N2CCCC[C@@H]2C(=O)NO)CC1` [compound 242], in assay [3], the “% protection” value was found to be 27%. For the compound `O=CN1CCN(S(=O)(=O)N2CCC(C(=O)c3ccc(Cl)cc3)CC2)C(C(=O)NO)C1` (stereo not shown) [compound 262], in assay [1], the “% inhibition” value is reported as 50%. On the same count and under the same terms, the same measure for `N#Cc1ccc2[nH]cc(C3CCN(S(=O)(=O)N4CCCC[C@@H]4C(=O)NO)CC3)c2c1` [compound 294]: 90%; for `CN(C)C(=O)N1CCN(S(=O)(=O)N2CCC(c3c[nH]c4c(F)c(F)c(F)c(F)c34)CC2)[C@@H](C(=O)NO)C1` [compound 309]: 46%.

As to `CC(C)[C@@H](NS(=O)(=O)N1CCN(c2ccc(OCc3ccncc3)cc2)CC1)C(=O)O` [compound 413], the IC50 in assay [5] came to 9.3 µM; in assay [6], 0.26 µM.
